According to publication PMC13541837, “High-yield production and functional analysis of novel rhizobial-type glutaminase-free L-asparaginase from Paenibacillus thiaminolyticus” (Folia Microbiologica, 2025):

Key:
[1] = target: L-asparaginase from Paenibacillus thiaminolyticus (isoenzyme 1) (Paenibacillus thiaminolyticus); assay: SEC; HiPrep 16/60 Sephacryl S-100 HR, flow rate 0.5 mL/min, 50 mM phosphate (K+) buffer pH 8.0; standards lysozyme (14 kDa), amylase (55 kDa), aldolase (160 kDa)
[2] = target: T1, ASN339Pt iso 1 (Paenibacillus thiaminolyticus, UniProt A0AAP9J308); assay: ammonia release, Nessler's reagent, […] nm; modified substrate inhibition model (Eq. […], n = […]); format: biochemical; conditions: 100 mM Tris pH 9.0, 37 °C, 10 min (standard assay); L-asparagine 1.9-145 mmol L^-1; fit with substrate inhibition; read-out: Results (according to Eq. (2))
T1 construct: gene M5W83_23570; motifs RSSSKPVQAL and NCSGKHLGV; not isoenzyme 2 WP_087440700.1

[3] = target: T1, ASN339Pt iso 1; assay: as above; format: biochemical; conditions: 100 mM Tris pH 9.0, 37 °C, 10 min (standard assay); L-asparagine 1.9-145 mmol L^-1; fit with substrate inhibition; substrate inhibition constant, two additional substrate molecules (n = 2), active sit

T1 sequence (A0AAP9J308 entry or part of it): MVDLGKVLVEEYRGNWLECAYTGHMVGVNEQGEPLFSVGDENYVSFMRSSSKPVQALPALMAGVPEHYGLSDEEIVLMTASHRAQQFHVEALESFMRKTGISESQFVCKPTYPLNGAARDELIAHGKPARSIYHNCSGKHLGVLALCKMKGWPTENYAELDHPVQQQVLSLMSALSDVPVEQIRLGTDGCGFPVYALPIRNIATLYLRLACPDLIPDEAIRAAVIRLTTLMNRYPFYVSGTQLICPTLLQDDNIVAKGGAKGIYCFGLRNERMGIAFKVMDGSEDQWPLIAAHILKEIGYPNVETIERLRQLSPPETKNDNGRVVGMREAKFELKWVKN

Row | Molecule | stoichiometry N [1] | Km [2] [mM] | Results (according to Eq. (2)) [3] [mmol/L]
1 | L-asparaginase from Paenibacillus thiaminolyticus (isoenzyme 1) | 2 |  | 
2 | NC(=O)C[C@H](N)C(=O)O [L-asparagine] |  | 26 ± 8 | 32 ± 5
